Test results: patent US20090118361A1, “SUPPRESSOR OF EXPRESSION OF MCP-1, AND AMELIORATING AGENT FOR INFLAMMATORY DISEASE, PHARMACEUTICAL, SUPPLEMENT, FOOD, BEVERAGE OR FOOD ADDITIVE USING THE SUPPRESSOR” (ARKRAY, INC., priority 2006, published 2009)

How the values were obtained:
MCP-1 [1] = assay: Suppression of MCP-1 mRNA expression in differentiated 3T3-L1 adipocytes (Light Cycler quantitative determination, ratio to 36B4); format: cell-based, mouse; details: 3T3-L1, eight days after start of differentiation induction, MCP-1/36B4 ratio relative to non-treated control = 100%, mean ± standard error
Experimental: (§1) First, two types of culture media indicated below, i.e. a differentiation induction culture medium and a differentiation enhancing culture medium, were prepared.
(§2) (Composition: 0.25 μM DEX, 0.5 mM MIX, 10 μg/mL insulin/10% FBS-containing DMEM)
(§3) First, 55 mL of FBS (fetal bovine serum (manufactured by GIBCO)) was added to 500 mL of DMEM (manufactured by SIGMA), and thereby 10% FBS-containing DMEM was prepared. Thereafter, 138.75 μL of 1 mM DEX (dexamethasone)-containing DMSO (manufactured by Nacalai Tesque, Inc.) and 555 μL of 10 mg/mL insulin-containing PBS (manufactured by SIGMA) were added thereto. The insulin-containing PBS was prepared as follows. That is, 1N HCl was added to PBS beforehand, so that PBS acidified to a degree that allowed insulin to dissolve therein, and thereafter insulin was dissolved therein. MIX (3-Isobutyl-1-methylxanthine) (manufactured by Nacalai Tesque, Inc.) was added to a required amount of the culture medium immediately before use so as to be 0.5 mM. Thus a differentiation induction culture medium was prepared. Since MIX was very difficult to dissolve, it first was dissolved in a small amount of 99.5% ethanol. which was then added to 10% FBS-containing DMEM. In this case, the final concentration of 99.5% ethanol in the differentiation induction culture medium was adjusted so as not to exceed 1%.
(§4) (Composition: 5 ug/mL insulin/10% FBS-containing DMEM/auraptene)
First, 277.5 μL of the aforementioned 10 mg/mL insulin-containing PBS was added to 555 ml, of 10% FBS-containing DMEM. Furthermore, auraptene (AUR) with various concentrations was added to this mixture and thereby differentiation enhancing culture media were prepared. […]
Subsequently, frozen cultured preadipocyte 3T3-L1 was thawed and was plated on the culture medium placed in a 100-mm dish. […] Subsequently, using a Light/Cycler®, the levels of mRNA expression of MCP-1 and 36B4, […], were measured. […]

MCP-1 [2] = assay: MCP-1 protein secretion into conditioned medium of differentiated 3T3-L1 adipocytes (ELISA); format: cell-based, mouse; details: 3T3-L1 conditioned medium, eight days after start of differentiation induction, relative to non-treated control = 100, mean ± standard error
Experimental: as §1, §2, §3, §4
First, 277.5 μL of the aforementioned 10 mg/mL insulin-containing PBS was added to 555 ml, of 10% FBS-containing DMEM. Furthermore, auraptene (AUR) with various concentrations was added to this mixture and thereby differentiation enhancing culture media were prepared. In this case, a cultured cell obtained by using auraptene-free differentiation enhancing culture medium containing DMSO added instead of auraptene was employed as a non-treated control (control).
Subsequently, frozen cultured preadipocyte 3T3-L1 was thawed and was plated on the culture medium placed in a 100-mm dish. This was cultured until 3T3-L1 reached about 80% confluent. One dish of 3T3-L1 that had reached about 80% confluent was subcultured on a 6-well plate. Subsequently, after 3T3-L1 subcultured on the 6-well plate further was cultured until it reached 100% confluent, the culture medium was replaced by a differentiation induction culture medium and thereby differentiation was induced. Subsequently, 48 hours after replacement by a differentiation induction culture medium, the culture medium was replaced by a differentiation enhancing culture medium. Thereafter, replacement of the differentiation enhancing culture medium was carried out every three days. Using Sepasol RNA I Super (trade name, manufactured by Nacalai Tesque, Inc.), mRNA was extracted from the cultured cells eight days after the start of differentiation induction. Subsequently, using a Light/Cycler®, the levels of mRNA expression of MCP-1 and 36B4, […], were measured. The measurement of the levels of mRNA expression is described below in detail.
Furthermore, the culture medium obtained eight days after the start of differentiation induction was collected in an amount of 1 mL from each well. Using an ELISA kit (manufactured by BD Bioscience, trade name: BD OptEIA Set Mouse MCP-1), the amount of MCP-1 (protein abundance) in the conditioned medium was measured according to the manual of the kit.
The relative ratios calculated, with the measured value of the non-treated control (control) with respect to the measured value of the secretion amount of MCP-1 by ELISA being taken as 100, are indicated in Table 2 below and in the graph shown in FIG. 2. The auraptene concentrations indicated in Table 2 below and FIG. 2 are final concentrations in the differentiation enhancing culture media. In FIG. 2, AUR denotes auraptene, and Ctrl indicates the non-treated control (control). […]

CC(C)=CCC/C(C)=C/COc1ccc2ccc(=O)oc2c1 [Example 1, auraptene]
mRNA concentration of MCP-1 (MCP-1 [1]; auraptene 5 μM in differentiation enhancing medium): 99.8 ± 8.0% | mRNA concentration of MCP-1 (MCP-1 [1]; auraptene 20 μM in differentiation enhancing medium): 62.3 ± 5.8% | mRNA concentration of MCP-1 (MCP-1 [1]; auraptene 50 μM in differentiation enhancing medium): 28.3 ± 2.9% | Protein secretion amount of MCP-1 (MCP-1 [2]; auraptene 1 μM): 94.6 ± 4.9% | Protein secretion amount of MCP-1 (MCP-1 [2]; auraptene 5 μM): 98.6 ± 2.5% | Protein secretion amount of MCP-1 (MCP-1 [2]; auraptene 10 μM): 92.1 ± 4.6% | Protein secretion amount of MCP-1 (MCP-1 [2]; auraptene 20 μM): 72.3 ± 2.2% | Protein secretion amount of MCP-1 (MCP-1 [2]; auraptene 30 μM): 63.9 ± 2.5% | Protein secretion amount of MCP-1 (MCP-1 [2]; auraptene 50 μM): 48.5 ± 2.1%
